Source: the supplement of paper PMC11451515

System: SEM cells
Assay: cell viability relative to DMSO control; higher = less cytotoxic
Conditions: 48 h
Summary of the method: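 In 1536-well plates, 5 μl of leukemia cells were seeded per well: 500 cells/well for NOMO1 or SEM and 1000 cells/well for P12-Ichikawa. Each line had first been adapted for at least four passages in each medium. Library compounds in DMSO were pin-dosed at 11 threefold concentrations between 47 μM and 0.79 nM, and CellTiter-Glo One luminescence was read after 48 h at 37°C. Viability is a per-plate percentage relative to DMSO wells, with cell-free wells as background.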

[1] = HPLM + 10% dialyzed FBS, 0.000781 µM
[2] = HPLM + 10% dialyzed FBS, 0.00234 µM
[3] = HPLM + 10% dialyzed FBS, 0.00702 µM
[4] = HPLM + 10% dialyzed FBS, 0.0211 µM
[5] = HPLM + 10% dialyzed FBS, 0.0632 µM
[6] = HPLM + 10% dialyzed FBS, 0.19 µM
[7] = HPLM + 10% dialyzed FBS, 0.569 µM
[8] = HPLM + 10% dialyzed FBS, 1.71 µM
[9] = HPLM + 10% dialyzed FBS, 5.12 µM
[10] = HPLM + 10% dialyzed FBS, 15.4 µM
[11] = HPLM + 10% dialyzed FBS, 46.1 µM
[12] = RPMI 5 mM glucose + 10% FBS, 0.000781 µM
[13] = RPMI 5 mM glucose + 10% FBS, 0.00234 µM
[14] = RPMI 5 mM glucose + 10% FBS, 0.00702 µM
[15] = RPMI 5 mM glucose + 10% FBS, 0.0211 µM
[16] = RPMI 5 mM glucose + 10% FBS, 0.0632 µM
[17] = RPMI 5 mM glucose + 10% FBS, 0.19 µM
[18] = RPMI 5 mM glucose + 10% FBS, 0.569 µM
[19] = RPMI 5 mM glucose + 10% FBS, 1.71 µM
[20] = RPMI 5 mM glucose + 10% FBS, 5.12 µM
[21] = RPMI 5 mM glucose + 10% FBS, 15.4 µM
[22] = RPMI 5 mM glucose + 10% FBS, 46.1 µM
[23] = RPMI 5 mM glucose + 10% dialyzed FBS, 0.000781 µM
[24] = RPMI 5 mM glucose + 10% dialyzed FBS, 0.00234 µM
[25] = RPMI 5 mM glucose + 10% dialyzed FBS, 0.00702 µM
[26] = RPMI 5 mM glucose + 10% dialyzed FBS, 0.0211 µM
[27] = RPMI 5 mM glucose + 10% dialyzed FBS, 0.0632 µM
[28] = RPMI 5 mM glucose + 10% dialyzed FBS, 0.19 µM
[29] = RPMI 5 mM glucose + 10% dialyzed FBS, 0.569 µM
[30] = RPMI 5 mM glucose + 10% dialyzed FBS, 1.71 µM
[31] = RPMI 5 mM glucose + 10% dialyzed FBS, 5.12 µM
[32] = RPMI 5 mM glucose + 10% dialyzed FBS, 15.4 µM
[33] = RPMI 5 mM glucose + 10% dialyzed FBS, 46.1 µM

Compound	cell viability [1] [%]	cell viability [2] [%]	cell viability [3] [%]	cell viability [4] [%]	cell viability [5] [%]	cell viability [6] [%]	cell viability [7] [%]	cell viability [8] [%]	cell viability [9] [%]	cell viability [10] [%]	cell viability [11] [%]	cell viability [12] [%]	cell viability [13] [%]	cell viability [14] [%]	cell viability [15] [%]	cell viability [16] [%]	cell viability [17] [%]	cell viability [18] [%]	cell viability [19] [%]	cell viability [20] [%]	cell viability [21] [%]	cell viability [22] [%]	cell viability [23] [%]	cell viability [24] [%]	cell viability [25] [%]	cell viability [26] [%]	cell viability [27] [%]	cell viability [28] [%]	cell viability [29] [%]	cell viability [30] [%]	cell viability [31] [%]	cell viability [32] [%]	cell viability [33] [%]
C=CC(=O)Nc1cc2c(Nc3ccc(F)c(Cl)c3)ncnc2cc1OCCCN1CCOCC1	112	107	112	128	110	124	114	90.3	55	39.2	26.7	87.7	81.5	85.3	84	73.1	78.6	80.2	68.6	41.7	24.2	42.9	119	114	95.4	127	112	110	108	89	56.3	29.1	58.8
C=C[C@H]1CN2CCC1C[C@@H]2C(O)c1ccnc2ccc(OC)cc12 (stereo not given in full)	118	146	116	22.4	131	115	121	111	126	113	111	67.5	77.6	104	11.3	99.7	96.1	82	77	94.6	84.6	63	121	123	138	23.6	129	121	112	127	131	132	97.5
COC1=C(OCCCN2CCOCC2)C=C3N=CC=C(OC4=CC=C(C=C4F)\C5=C\N=C(\NC6=CC=C(F)C=C6)N(C)C5=O)C3=C1	110	112	110	91.7	68.9	57.7	59	52.4	47.8	40.7	5.64	103	108	113	81.2	79.4	65.2	46.7	56.5	52.6	37.6	1.97	110	116	103	77.9	73.8	52	45.9	44	43	34.8	3.15
COC(=O)C\1=C(C)\N\C(=C(/C1C2=CC=CC3=NON=C23)C(=O)OC(C)C)C (stereo not given)	105	98.6	97.7	105	109	100	95	83.6	110	90.4	80.1	87.2	96.4	107	126	101	100	98.2	95	85.5	88	78.6	98.9	96.9	104	110	111	114	114	95.2	87.2	99.2	70.8
C[C@@H](CN1CC(=O)NC(=O)C1)N1CC(=O)NC(=O)C1	86.3	103	102	96.6	70.9	32.1	17.2	12.8	10.5	5.86	4.47	93.6	99.3	98.2	67.1	72.1	17.1	9.93	8.96	7.24	4.49	3.85	75	101	92.6	82.5	61.1	18.6	8.07	8.83	7.97	4.17	3.08
Nc1ccc([S+](=O)([O-])Nc2ccnn2-c2ccccc2)cc1	76.6	89.9	80.9	97.8	87.8	98.8	109	95.5	94.8	93.8	93	89.4	92.8	105	102	88.8	98.2	114	102	89	96.2	116	95.1	89.5	104	86.2	97.5	88	107	94.8	115	106	104
CNC(=O)c1ccc(Nc2cc(Nc3ccccc3[S+](=O)([O-])C(C)C)c3cc[nH]c3n2)nc1	81.7	76.4	96.5	90.7	89.8	98.3	82.9	38.2	28.4	24.3	16.8	93.5	118	106	114	104	102	101	48.9	20.8	17.7	6.52	83.9	99.4	98.5	94.7	102	97.6	85	27	20.1	17.4	7.56
C[C@]12CC[C@H]3[C@@H](CCC4=CC(=O)CC[C@@H]43)[C@@H]1CC[C@@H]2OC(=O)CCc1ccccc1	83.2	22.9	101	93.8	100	98.5	94.3	99.6	85.9	91.4	93.6	116	24.5	123	111	116	115	108	122	110	120	114	99.4	26.5	107	122	112	109	104	123	100	125	113
CC12CC3CC(C)(C1)CC(N)(C3)C2	89.4	107	93.2	105	96.7	99.4	127	126	103	114	105	106	94.4	105	109	110	106	122	114	133	123	131	84.3	86.8	88.6	116	102	104	110	103	101	95.5	104
CC(=O)Oc1ccccc1C(=O)Nc1ncc([N+](=O)[O-])s1	85.4	88.9	89	91.3	84.3	107	98.3	104	96.9	93.1	66.3	85	100	92.6	101	90.5	107	94.7	101	104	85.4	79.6	87.1	93	99.6	100	108	106	101	104	100	94.2	82.7
O=P(O)(O)C(O)(Cn1ccnc1)P(=O)(O)O	73.9	94	19.2	101	106	101	107	106	104	109	99.1	95.8	102	10.2	110	120	116	123	110	123	120	114	100	89.7	22.5	92.7	114	104	102	117	120	116	121
CN(C)CC(C)(C)CNc1nn2c(-c3ccccc3)nnc2cc1C1CCC1	79.6	98.8	100	98	92.1	114	5.79	101	92.3	82.7	62.4	92.9	116	104	127	110	125	6.41	106	103	81.1	73.1	68.1	123	101	113	105	110	5.36	102	106	71.8	77.8
N[C@@H]1CONC1=O	99.7	100	103	97.7	104	109	107	98.5	104	103	118	91.3	96	84.7	93.5	86	93.3	108	94.9	89.6	92.2	92.4	91.2	81.3	89.7	89.2	97.8	87.4	101	93.7	81.6	101	80.6
Cc1cccc(Nc2ccncc2[S+](=O)([O-])NC(=O)NC(C)C)c1	80.2	82.6	88	92.4	85.7	95.1	98.6	85.6	75.5	84.4	72.3	103	94.6	83.8	102	96.2	97.9	111	87.7	90.4	95.3	88.5	89.7	104	110	94.4	106	111	101	95.7	83.8	101	84.5
CCCCN(CCCC)CC(O)c1cc(Cl)cc2c1-c1ccc(Cl)cc1/C2=C/c1ccc(Cl)cc1 (stereo not given)	93.1	95.5	93.1	108	99	107	111	105	109	104	106	80.9	95.7	85.6	95.7	95.1	98.4	94.6	89.9	98.6	91.2	78.9	88.9	94.4	89.3	89.6	78.9	94.4	94.5	97.7	101	80.5	91.3
